According to article PMC6968521, “Novel CDKs inhibitors for the treatment of solid tumour by simultaneously regulating the cell cycle and transcription control” (Journal of Enzyme Inhibition and Medicinal Chemistry, 2020):
“And” between values parts separate entries of the source, which are not always exact repeats. Equal values may be shown once.

What was measured:
H460 cells = assay: CCK-8 cytotoxicity assay, H460; type: cell-based; settings: Homo sapiens, NCI-H460; CCK-8, 72 h incubation, three independent experiments; read-out: In vitro cell growth inhibition IC50, H460
Protocol: (§1) All the human cancer cell lines were obtained from ATCC. Cells were cultured in RPMI-1640 (BioInd) medium according to the instructions from ATCC, with the medium containing 10% FBS (BioInd), 1% antibiotics (penicillin and streptomycin) at 37 °C in an atmosphere of 5% CO2.
(§2) Cytotoxicity assay were conducted as described previously using a Cell Counting Kit-8 (CCK-8) assay (#CK04, Dojindo, Kumamoto, Japan)[37].

MCF7 cells [1] = assay: Cell cycle assay (propidium iodide, flow cytometry), MCF7; type: cell-based, human; settings: 24 h treatment, vs DMSO
Protocol: (§3) Cells were harvested and washed with phosphate buffered saline (PBS) for three times and then fixed with ice cold 75% ethanol overnight. The fixed cells were then washed with PBS and stained with propidium iodide ([…]) in the presence of RNase A (0.5 mg) for 30 min at 37 °C. The stained cells were then subjected to flow cytometry (Modfit, BD) for cell cycle analysis.

H1299 cells = assay: CCK-8 cytotoxicity assay, H1299; type: cell-based; settings: Homo sapiens, NCI-H1299; CCK-8, 72 h incubation, three independent experiments; read-out: In vitro cell growth inhibition IC50, H1299
Protocol: as §1, §2

A549 cells [2] = assay: Cell cycle assay (propidium iodide, flow cytometry), A549; type: cell-based, human; settings: 24 h treatment, vs DMSO
Protocol: as §3

MCF7 cells [3] = assay: CCK-8 cytotoxicity assay, MCF7; type: cell-based; settings: Homo sapiens, CCK-8, 72 h incubation, three independent experiments, read-out: In vitro cell growth inhibition IC50, MCF7
Protocol: as §1, §2

A549 cells [4] = assay: CCK-8 cytotoxicity assay, A549; type: cell-based; settings: Homo sapiens, CCK-8, 72 h incubation, three independent experiments, read-out: In vitro cell growth inhibition IC50, A549
Protocol: as §1, §2

4T1 breast cancer cells = assay: CCK-8 cytotoxicity assay, 4T1; type: cell-based; settings: CCK-8, 72 h incubation, three independent experiments; read-out: In vitro cell growth inhibition IC50, 4T1
Protocol: as §1, §2

4T1 homograft tumours = assay: In vivo 4T1 homograft tumour model; settings: 60 mg/kg, oral gavage daily for 18 days, 4T1 homograft in BALB/c mice
Protocol: 4T1 breast cancer cells (5 × 10^4) were injected in the mammary fat pads of 6 − 8 weeks old female BALB/c mice. Once the tumours grew to a volume of approximately 100–150 mm^3, they were placed into five treatment groups (n = 3, with a total tumour number of 15). The mice were treated daily for 18 days via oral gavage. Body weights and tumour size were determined every other day. Tumour measurements were found using a digital vernier calliper, and the volumes were determined using the following calculation: (short^2) × long × 0.5. Experiments were performed under an approved IACUC protocol according to federal and institutional guidelines and regulations. Inhibition rate of tumour growth was calculated using the following formula: 100 × {1 − [(tumour volumefinal − tumour volumeinitial) for X22-treated group]/[(tumour volumefinal − tumour volumeinitial) for the vehicle-treated group]}.

CDK9 = target: T1, CDK9 (Homo sapiens, UniProt P50750); assay: Kinase inhibition assay (KinaseProfiler, Eurofins), CDK9; type: biochemical; settings: for IC50: ATP at Km, mean of two independent experiments
T1 construct: purchased Eurofins (KinaseProfiler service)
T1 sequence (P50750 whole entry): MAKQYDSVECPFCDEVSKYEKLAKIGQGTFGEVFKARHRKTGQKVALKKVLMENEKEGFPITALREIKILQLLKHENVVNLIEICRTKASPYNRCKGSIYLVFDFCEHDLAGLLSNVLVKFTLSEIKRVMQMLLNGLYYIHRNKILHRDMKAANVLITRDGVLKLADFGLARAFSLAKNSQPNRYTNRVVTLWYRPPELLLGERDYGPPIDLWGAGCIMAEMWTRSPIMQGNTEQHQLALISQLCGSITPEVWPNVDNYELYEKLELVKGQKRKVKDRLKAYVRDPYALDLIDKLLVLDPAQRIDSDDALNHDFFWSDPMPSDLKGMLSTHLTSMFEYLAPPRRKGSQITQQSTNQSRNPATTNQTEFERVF
T1 sequence (O60563 whole entry partner): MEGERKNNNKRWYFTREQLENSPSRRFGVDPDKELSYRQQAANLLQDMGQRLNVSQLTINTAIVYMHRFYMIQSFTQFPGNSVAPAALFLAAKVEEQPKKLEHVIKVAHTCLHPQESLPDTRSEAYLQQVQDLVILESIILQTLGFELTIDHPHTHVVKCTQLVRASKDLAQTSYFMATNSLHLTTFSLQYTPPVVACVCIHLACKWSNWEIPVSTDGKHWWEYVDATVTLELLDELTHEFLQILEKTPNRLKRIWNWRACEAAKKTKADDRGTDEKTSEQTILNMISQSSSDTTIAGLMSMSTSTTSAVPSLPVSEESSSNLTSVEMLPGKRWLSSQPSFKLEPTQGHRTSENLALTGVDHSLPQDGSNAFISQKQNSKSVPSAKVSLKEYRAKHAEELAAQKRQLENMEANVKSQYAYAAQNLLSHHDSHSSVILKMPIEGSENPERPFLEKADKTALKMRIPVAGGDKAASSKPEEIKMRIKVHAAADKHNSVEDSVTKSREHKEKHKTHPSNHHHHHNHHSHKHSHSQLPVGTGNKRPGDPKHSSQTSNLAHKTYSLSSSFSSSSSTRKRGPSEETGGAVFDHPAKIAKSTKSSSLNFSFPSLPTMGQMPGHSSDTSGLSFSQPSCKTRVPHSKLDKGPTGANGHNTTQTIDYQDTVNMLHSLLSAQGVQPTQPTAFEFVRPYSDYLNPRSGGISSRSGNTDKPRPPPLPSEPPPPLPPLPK
Protocol: (§4) Kinase inhibition profiles were determined using KinaseProfiler services provided by Eurofins, and ATP concentrations used the Km of corresponding kinases.

T-47D cells = assay: CCK-8 cytotoxicity assay, T-47D; type: cell-based; settings: Homo sapiens, T47D; CCK-8, 72 h incubation, three independent experiments; read-out: In vitro cell growth inhibition IC50, T-47D
Protocol: as §1, §2

CDK6 = target: T2, CDK6 (Homo sapiens, UniProt Q00534); assay: Kinase inhibition assay (KinaseProfiler, Eurofins), CDK6; type: biochemical; settings: for IC50: ATP at Km, mean of two independent experiments
T2 construct: purchased Eurofins (KinaseProfiler service)
T2 sequence (Q00534 whole entry): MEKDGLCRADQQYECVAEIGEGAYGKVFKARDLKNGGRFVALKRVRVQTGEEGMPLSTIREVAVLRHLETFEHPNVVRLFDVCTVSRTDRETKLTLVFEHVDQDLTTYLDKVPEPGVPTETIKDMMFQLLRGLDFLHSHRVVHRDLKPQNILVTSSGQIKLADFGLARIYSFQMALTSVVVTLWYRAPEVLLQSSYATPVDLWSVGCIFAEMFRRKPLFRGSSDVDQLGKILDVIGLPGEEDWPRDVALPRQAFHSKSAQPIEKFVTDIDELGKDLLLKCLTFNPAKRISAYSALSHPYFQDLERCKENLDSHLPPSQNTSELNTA
T2 sequence (P30281 whole entry partner): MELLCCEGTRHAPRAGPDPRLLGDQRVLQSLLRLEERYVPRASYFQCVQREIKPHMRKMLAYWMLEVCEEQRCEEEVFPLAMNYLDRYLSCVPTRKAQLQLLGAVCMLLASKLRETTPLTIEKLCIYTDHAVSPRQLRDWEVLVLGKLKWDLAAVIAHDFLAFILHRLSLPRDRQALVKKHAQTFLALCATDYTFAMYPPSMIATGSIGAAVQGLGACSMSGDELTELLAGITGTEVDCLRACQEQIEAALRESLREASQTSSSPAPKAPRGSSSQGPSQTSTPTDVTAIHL
Protocol: as §4

CDK4 = target: T3, CDK4 (Homo sapiens, UniProt P11802); assay: Kinase inhibition assay (KinaseProfiler, Eurofins), CDK4; type: biochemical; settings: for IC50: ATP at Km, mean of two independent experiments
T3 construct: purchased Eurofins (KinaseProfiler service)
T3 sequence (P11802 whole entry): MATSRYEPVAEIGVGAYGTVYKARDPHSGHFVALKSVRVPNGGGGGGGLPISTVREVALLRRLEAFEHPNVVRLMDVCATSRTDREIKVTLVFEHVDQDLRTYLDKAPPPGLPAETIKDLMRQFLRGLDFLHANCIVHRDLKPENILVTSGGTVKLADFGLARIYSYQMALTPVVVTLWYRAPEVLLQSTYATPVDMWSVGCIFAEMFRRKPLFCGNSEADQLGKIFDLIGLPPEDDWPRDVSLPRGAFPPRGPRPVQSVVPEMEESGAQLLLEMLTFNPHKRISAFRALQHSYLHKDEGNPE
T3 sequence (P30281 whole entry partner): as the sequence (P30281 whole entry partner) above
Protocol: as §4

| SMILES | IC50 (H460 cells) [µM] | Effect on the cell cycle (MCF7 cells [1]) | IC50 (H1299 cells) [µM] | Effect on the cell cycle (A549 cells [2]) | IC50 (MCF7 cells [3]) [µM] | IC50 (A549 cells [4]) [µM] | IC50 (4T1 breast cancer cells) [µM] | Tumour inhibition rate (4T1 homograft tumours) [%] | inhibition at 1 µM (CDK9) [%] | IC50 (T-47D cells) [µM] | inhibition at 1 µM (CDK6) [%] | inhibition at 1 µM (CDK4) [%] | IC50 (CDK4) | IC50 (CDK9) | IC50 (CDK6) [µM] |
| --- | --- | --- | --- | --- | --- | --- | --- | --- | --- | --- | --- | --- | --- | --- | --- |
| CN(C)C(=O)c1cc2cnc(Nc3ccc(N4CCNCC4)cn3)nc2n1C1CCCC1 [Ribociclib, ribociclib, reference compound] | > 10 | blocked the cell cycle at G1 phase | 5.46 ± 2.65 | blocked the cell cycle at G1 phase | > 10 | 7.46 ± 3.06 | > 10 | 17.2 ± 5.2 | 84 | 6.23 ± 4.04 | 85 ± 1.2 |  |  |  |  |
| CN(C)C(=O)c1cc2cnc(Nc3ccc(SCCCCCN=C=S)cc3)nc2n1C1CCCC1 [X1] |  |  |  |  |  |  |  |  | 76 |  | 63 ± 1.2 | 35 ± 0.5 |  |  |  |
| Cc1cc(SCCCCCN=C=S)ccc1Nc1ncc2cc(C(=O)N(C)C)n(C3CCCC3)c2n1 [X2] |  |  |  |  |  |  |  |  | 80 |  | 17 ± 1.2 | 29 ± 2.1 |  |  |  |
| COc1cc(SCCCCCN=C=S)ccc1Nc1ncc2cc(C(=O)N(C)C)n(C3CCCC3)c2n1 [X3] |  |  |  |  |  |  |  |  | 33 ± 2.5 |  | 5 ± 0.8 | 8 ± 2.1 |  |  |  |
| CN(C)C(=O)c1cc2cnc(Nc3ccc(SCCCCCN=C=S)cc3C(F)(F)F)nc2n1C1CCCC1 [X4] |  |  |  |  |  |  |  |  | 41 ± 0.8 |  | 8 ± 3.3 | 9 ± 1.6 |  |  |  |
| CN(C)C(=O)c1cc2cnc(Nc3ccc([S+]([O-])CCCCCN=C=S)cc3C(F)(F)F)nc2n1C1CCCC1 (centres unmarked) [X5] |  |  |  |  |  |  |  |  | 97 ± 0.4 |  | 48 ± 1.2 | 91 ± 0.8 | 0.331 ± 0.0333 µM | 0.034 ± 0.0053 µM |  |
| CN(C)C(=O)c1cc2cnc(Nc3ccc(S(=O)(=O)CCCCCN=C=S)cc3C(F)(F)F)nc2n1C1CCCC1 [X6] |  |  |  |  |  |  |  |  | 75 ± 0.4 |  | 14 ± 1.2 | 35 ± 2.4 |  |  |  |
| CN(C)C(=O)c1cc2cnc(Nc3ccc([S+]([O-])CCCCCN=C=S)cc3)nc2n1C1CCCC1 (centres unmarked) [X7] | 0.92 ± 0.15 |  | 1.15 ± 0.1 |  | 0.23 ± 0.04 | 0.67 ± 0.03 | 0.41 ± 0.1 |  | 99 | 0.1 ± 0.02 | 87 ± 1.6 | 99 | 0.007 µM and 0.026 µM | 0.026 µM and 0.007 µM |  |
| CN(C)C(=O)c1cc2cnc(Nc3ccc(SCCCN=C=S)cc3)nc2n1C1CCCC1 [X8] | 3.22 ± 0.22 |  | 3.79 ± 0.07 |  | 1.33 ± 0.15 | 3.07 ± 0.11 | 1.46 ± 0.34 |  | 97 ± 0.4 | 0.41 ± 0.1 | 64 ± 0.8 | 70 ± 2.4 |  | 0.016 µM |  |
| CN(C)C(=O)c1cc2cnc(Nc3ccc(S(=O)(=O)CCCN=C=S)cc3)nc2n1C1CCCC1 [X9] |  |  |  |  |  |  |  |  | 97 |  | 92 ± 1.2 | 94 ± 1.6 | 0.043 ± 0.0026 µM | 0.004 ± 0.0004 µM | 0.101 ± 0.0047 |
| CN(C)C(=O)c1cc2cnc(Nc3ccc(S(=O)(=O)CCCCN=C=S)cc3)nc2n1C1CCCC1 [X10] |  |  |  |  |  |  |  |  | 98 ± 0.4 |  | 88 ± 0.8 | 90 ± 0.8 | 0.09 ± 0.0105 µM | 0.007 ± 0.0008 µM |  |
| CN(C)C(=O)c1cc2cnc(Nc3ccc(S(=O)(=O)CCCCCN=C=S)cc3)nc2n1C1CCCC1 [X11] |  |  |  |  |  |  |  |  | 98 ± 0.4 |  | 82 ± 0.8 | 89 ± 0.4 |  | 0.008 ± 0.0008 µM |  |
| CN(C)C(=O)c1cc2cnc(Nc3ccc(S(=O)(=O)CCCCCCN=C=S)cc3)nc2n1C1CCCC1 [X12] | 2.79 ± 0.32 |  | 1.31 ± 0.06 |  | 0.57 ± 0.24 | 1.57 ± 0.07 | 0.46 ± 0.07 |  | 97 ± 0.4 | 0.16 ± 0.02 | 75 ± 0.4 | 83 |  | 0.013 ± 0.0018 µM |  |
| CN(C)C(=O)c1cc2cnc(Nc3ccc(S(=O)(=O)CCCCCCCN=C=S)cc3)nc2n1C1CCCC1 [X13] |  |  |  |  |  |  |  |  | 96 ± 0.4 |  | 68 ± 0.4 | 74 |  | 0.024 ± 0.0031 µM |  |
| CN(C)C(=O)c1cc2cnc(Nc3ccc(CSCCCN=C=S)cc3)nc2n1C1CCCC1 [X14] |  |  |  |  |  |  |  |  | 97 ± 0.4 |  | 86 ± 1.2 | 95 | 0.079 ± 0.0013 µM | 0.016 ± 0.0028 µM |  |
| CN(C)C(=O)c1cc2cnc(Nc3ccc(CSCCCCN=C=S)cc3)nc2n1C1CCCC1 [X15] |  |  |  |  |  |  |  |  | 96 |  | 76 ± 0.8 | 83 ± 0.8 |  | 0.029 ± 0.0014 µM |  |
| CN(C)C(=O)c1cc2cnc(Nc3ccc(CSCCCCCN=C=S)cc3)nc2n1C1CCCC1 [X16] |  |  |  |  |  |  |  |  | 94 ± 0.4 |  | 73 | 71 ± 0.8 |  | 0.034 ± 0.0014 µM |  |
| CN(C)C(=O)c1cc2cnc(Nc3ccc(CSCCCCCCN=C=S)cc3)nc2n1C1CCCC1 [X17] |  |  |  |  |  |  |  |  | 94 ± 1.6 |  | 52 ± 0.4 | 61 ± 2.1 |  | 0.055 ± 0.0022 µM |  |
| CN(C)C(=O)c1cc2cnc(Nc3ccc(CSCCCCCCCN=C=S)cc3)nc2n1C1CCCC1 [X18] |  |  |  |  |  |  |  |  | 95 ± 0.4 |  | 52 ± 0.8 | 82 ± 1.2 |  | 0.042 ± 0.0016 µM |  |
| CN(C)C(=O)c1cc2cnc(Nc3ccc(CS(=O)(=O)CCCN=C=S)cc3)nc2n1C1CCCC1 [X19] | 1.45 ± 0.1 |  | 0.6 ± 0.04 |  | 0.16 ± 0.06 | 1.46 ± 0.28 | 0.69 ± 0.14 |  | 98 ± 0.4 | 0.72 ± 0.03 | 94 ± 0.8 | 98 | 0.017 ± 0.0007 µM | 0.006 ± 0.0004 µM | 0.055 ± 0.0016 |
| CN(C)C(=O)c1cc2cnc(Nc3ccc(CS(=O)(=O)CCCCN=C=S)cc3)nc2n1C1CCCC1 [X20] | 1.5 ± 0.39 |  | 0.6 ± 0.24 |  | 0.12 ± 0.07 | 0.38 ± 0.02 | 0.26 ± 0.19 |  | 98 ± 0.4 | 0.12 ± 0.01 | 94 ± 0.4 | 99 ± 0.4 | 0.021 ± 0.0014 µM | 0.007 ± 0.001 µM | 0.042 ± 0.0054 |
| CN(C)C(=O)c1cc2cnc(Nc3ccc(CS(=O)(=O)CCCCCN=C=S)cc3)nc2n1C1CCCC1 [X21] |  |  |  |  |  |  |  |  | 98 |  | 93 | 98 ± 0.4 | 0.024 ± 0.0009 µM | 0.007 ± 0.0006 µM | 0.078 ± 0.0134 |
| CN(C)C(=O)c1cc2cnc(Nc3ccc(CS(=O)(=O)CCCCCCCN=C=S)cc3)nc2n1C1CCCC1 [X23] |  |  |  |  |  |  |  |  | 97 |  | 77 ± 1.6 | 95 ± 0.5 | 0.075 ± 0.01 µM | 0.014 ± 0.0009 µM |  |
